Measured values: patent publication US5827895A, “Hexahydrolupulones useful as anticancer agents” (Regents of the University of Minnesota, priority 1996, dated 1998)

Legend:
Assay in all cases: microbe, parasite or virus in culture
Format in all cases: cell-based, M. tuberculosis
[1] = tested on: Pyrazinamide Resistant TB; settings: Mycobacterium tuberculosis, read-out: inhibition of Pyrazinamide Resistant TB growth
[2] = tested on: Isoniazid Resistant TB; settings: Mycobacterium tuberculosis, read-out: inhibition of Isoniazid Resistant TB growth
[3] = tested on: Isoniazid and Rifampin Resistant TB; settings: Mycobacterium tuberculosis, read-out: inhibition of Isoniazid and Rifampin Resistant TB

CC(C)CCC1=C(O)C(C(=O)C(C)C)=C(O)C(CCC(C)C)(CCC(C)C)C1=O [HHC, hexahydrocolupulone]
inhibition at 75 µM [1]: 98%
inhibition at 75 µM [2]: 91%
inhibition at 75 µM [3]: 92%
